Values quoted from earlier work in publication PMC3530844 (ACS medicinal chemistry letters, 2012).

Columns and labels:
hD3 receptors = hD3 receptors (Homo sapiens, UniProt P35462); conditions: [35S]GTPγS; ref Ghosh et al., J. Med. Chem. 2010, 53, 2114-2125
hD2 receptors = hD2 receptors (Homo sapiens, UniProt P14416); conditions: [35S]GTPγS; ref Ghosh et al., J. Med. Chem. 2010, 53, 2114-2125
Sequence of hD2 receptors (P14416 whole entry): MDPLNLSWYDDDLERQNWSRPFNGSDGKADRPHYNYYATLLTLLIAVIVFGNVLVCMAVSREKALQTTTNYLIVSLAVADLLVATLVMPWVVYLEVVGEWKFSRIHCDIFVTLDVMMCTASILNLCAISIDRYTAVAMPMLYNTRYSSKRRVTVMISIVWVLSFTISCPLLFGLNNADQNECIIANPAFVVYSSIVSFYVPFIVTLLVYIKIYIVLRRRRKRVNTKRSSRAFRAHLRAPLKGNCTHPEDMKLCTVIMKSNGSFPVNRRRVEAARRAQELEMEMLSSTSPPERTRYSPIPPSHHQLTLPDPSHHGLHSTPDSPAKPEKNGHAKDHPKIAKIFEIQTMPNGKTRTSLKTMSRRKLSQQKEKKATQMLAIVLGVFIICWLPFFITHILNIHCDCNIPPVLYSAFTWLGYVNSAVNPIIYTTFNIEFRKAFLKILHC

Sequence of hD3 receptors (P35462 whole entry): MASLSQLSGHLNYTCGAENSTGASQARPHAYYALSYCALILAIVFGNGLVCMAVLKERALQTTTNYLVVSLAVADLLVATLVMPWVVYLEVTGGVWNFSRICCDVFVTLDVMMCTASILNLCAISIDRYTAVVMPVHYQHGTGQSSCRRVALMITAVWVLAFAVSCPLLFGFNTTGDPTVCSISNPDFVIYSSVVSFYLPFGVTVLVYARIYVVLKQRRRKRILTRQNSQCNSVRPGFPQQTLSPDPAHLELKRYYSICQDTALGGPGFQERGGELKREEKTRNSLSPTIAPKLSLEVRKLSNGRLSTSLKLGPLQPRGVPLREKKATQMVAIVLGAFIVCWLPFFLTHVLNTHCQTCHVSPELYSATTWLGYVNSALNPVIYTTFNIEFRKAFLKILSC

## CCCN(CCC)CCc1cccc2c1CC(=O)N2 [Ropinirole]
hD3 receptors
  %Emax hCHO-D3: 67 ± 8%
hD2 receptors
  %Emax hCHO-D2: 74 ± 0.9%
